In patent US20060205636A1, “Oxytocin as cardiomyogenesis inducer and uses thereof” (priority 2002, published 2006):
Entries after “also recorded” stand apart in the source; their conditions may differ. Each block holds one molecule with its values, some of them ahead of it.

Columns and labels:
P19 cells [1] = experiment: OT production by induced P19 cells (RIA); assay type: cell-based, mouse; settings: day 14, 4 h in serum-free medium
Description: P19 cells induced with DMSO or OT were cultured until day 14 in absence of inducer. Cells were washed carefully with PBS and incubated for 4 h in serum-free α-MEM supplemented with protease inhibiors (aprotinin, 30 μg/mL and soybean trypsin inhibitor (SBTI), 100 μg/mL). Cells and media were collected, extracted on Sep-Pak C18-cartridges (Waters Canada, Mississauga, Ontario), lyophilized, resuspended in a minimal volume of α-MEM and assayed by RIA as described (8). RIA was also done on undiluted serum combination used for P19 cell culture (1 part of fetal bovine serum and 3 parts of donor bovine serum).

P19 cells [2] = experiment: Cardiac differentiation of P19 cell aggregates, scored by beating cell colonies; assay type: cell-based, mouse; settings: for day by which beating cell colonies were present in all 24 independently growing cultures: aggregates treated 4 days with 10^−7 M OT or 0.5% DMSO, 24-well plate
Source text: P19 cells were propagated and differentiated according to the procedures of Rudnicki and McBurney (28), with minor modifications. Undifferentiated cells were propagated in complete medium containing α-modified Eagle's minimal essential medium (α-MEM; GIBCO-BRL Burlington, Ontario, Canada) supplemented with 2.5% heat-inactivated fetal bovine serum, 7.5% heat-inactivated donor bovine serum (Cansera International, Rexdale, Ontario, Canada), and the antibiotics (GIBCO-BRL) penicillin G (50 U/ml) and streptomycin (50 μg/ml). The cultures were maintained at 37° C. in a humidified atmosphere of 5% CO2 and passaged every 2 days. The general protocol used for differentiation of P19 cells is depicted in FIG. 1.
(§1) Briefly, 0.25×10^6 cells were allowed to aggregate for 4 days in non-adhesive bacteriological grade petri dishes (6-cm diameter) containing 5 ml complete medium, in the presence of 0.5% (v/v) DMSO (Sigma Chemical Co., St. Louis, Mo.). At day 2 of aggregation, the inducing culture medium was replenished. At day 4, aggregates were transferred to tissue culture grade vessels (10-cm diameter dishes or 24/48-well plates), and cultured in complete medium in the absence of differentiation-inducing agent. Aggregation was also done in the absence of DMSO, and in the presence of 10^−7 M OT and/or 10^−7 OTA ([d(CH2)5^1,Tyr(Me)^2,Thr^4,Orn^8,Tyr-NH2^9]-vasotocin), both from Peninsula Laboratories Inc. (San Carlos, Calif.). The cell populations were analyzed at days 10-14 of the entire differentiation protocol, at a time cardiac cells normally beat synchronously.
P19 cells were subjected to the cardiac differentiation protocol depicted in Example 1, except that different concentrations of OT were used during the four days of aggregation. At day 4, aggregates were transferred to 24-well plates and scored for the appearance of beating cell colonies. In addition, cells were collected at day 14 for analysis of OTR or OT expression by RT-PCR. Cell aggregates were also treated with RA and/or T3.

OTR = OTR expression in P19 cells (immunocytochemistry, Western blot, RT-PCR); assay type: cell-based, mouse; settings: for OTR expression (protein and mRNA) after treatment: DMSO 0.5%, OT 10^−7 M or OTA 10^−7 M alone; for early OTR induction (RT-PCR): second day of differentiation protocol, preliminary results
Description: (§2) For immunocytofluorescence studies, cells were grown onto glass coverslips coated with 0.1% gelatin. They were then fixed by 20-min incubation in PBS containing 4% paraformaldehyde, rinsed in PBS and stored at 4° C. in this buffer until used. All subsequent steps of permeabilization, washing and incubation with antibodies were performed at room temperature. Fixed cells were permeabilized for 10 min in PBS containing 0.005% saponin, blocked for 60 min in PBS-BSA-saponin (PBS containing 1% bovine serum albumin and 0.005% saponin), incubated for 45 min with the primary antibody diluted 1/50 and for 45 min with a fluorescein-conjugated swine anti-goat IgG antibody (Biosource International, Camarillo, Calif.) diluted 1/1000. PBS-BSA-saponin was used for washing between incubations and antibodies were diluted in the same buffer but containing 1.5% normal swine serum (Jackson Immuno Research Laboratories Inc., West Grove, Pa.). Coverslips were mounted in PBS containing 50% glycerol, and immediately examined under the microscope. The primary antibodies were all from Santa Cruz Biotechnology, Inc. (Santa Cruz, Calif.) and produced in goat: antibody C-20 against OT receptor (OTR), antibody K-16 against sarcomeric myosin heavy chain (MHC), and antibody N-19 against dihydropyridine receptor-alphal (DHPR-alphal).
Total cellular RNA was extracted with TRIzol® Reagent (Invitrogen Life Technologies, Burlington, Ontario, Canada), and poly(A)^+mRNA was affinity purified from 200 μg of total RNA onto Oligotex® mRNA columns (Qiagen, Mississauga, Ontario, Canada), as per the manufacturers' instructions. First-strand cDNA was synthesized in a final volume of 40 μl containing first-strand buffer, 3 μg of cellular RNA, 4 μl of hexanucleotide primers (Amersham-Pharmacia, Baie d'Urfé, Quebec, Canada), and avian myeloblastosis virus reverse transcriptase (12 units/μg RNA; Invitrogen). First-strand cDNA (5 μl) was then used for PCR amplification with OTR, ANP or GAPDH exon-specific oligonucleotide primers in a Robocycler Gradient 40 thermocycler (Stratagene, La Jolla, Calif.). Sequences of mouse OTR and ANP genes have been described (26, 34). Conditions for RT-PCR analysis of mouse OTR were adapted from Wagner et al. (6, 7). For all PCR studies the number of cycles used was within the linear range of amplification. The OTR sense and antisense primers were respectively the 22-bp 5′-[…]-3′ (SEQ ID NO:9) and the 23-bp 5′-[…]-3′ (SEQ ID NO:10). Amplification was performed over 32 cycles, each involving 1 min at 94° C., 1.5 min at 62° C. and 1.5 min at 72° C., and was terminated by a 5-min final extension at 72° C. The ANP antisense and sense primers were respectively the 24-bp 5′-[…]-3′ (SEQ ID NO:11) and the 20-bp 5′-[…]-3′ (SEQ ID NO:12). Amplification was performed over 25-30 cycles, each involving 1 min at 94° C., 1 min at 65° C. and 3 min at 72° C., and was terminated by a 5-min final extension at 72° C. The amplification of GAPDH mRNA, a constitutively and ubiquitously expressed gene, served as an internal standard for RT-PCR analysis. The 23-bp antisense primer 5′-[…]-3′ (SEQ ID NO:13) and the 23-bp sense primer 5′-[…]-3′ (SEQ ID NO:14) were used. Amplification was performed over 23 cycles, each involving 1 min at 94° C., 1.5 min at 59° C. and 2 min at 72° C.
Cells were collected by scraping, homogenized in sucrose buffer (20 mM Hepes/Tris, pH 7.4, containing 250 mM sucrose and 20 μg/ml of the protease inhibitor phenylmethylsulfonyl fluoride), then centrifuged at 3000 g for 10 min at 4° C. to remove debris. The supernatants were centrifuged at 100 000 g for 45 min at 4° C., and the pellets were resuspended in sucrose buffer for analysis of protein content by a modified Bradford assay (30). […]

P19 cells [3] = settings: cited from earlier work
[4] = tested on: sarcomeric MHC and DHPR-alphal; experiment: Immunocytofluorescence of cardiac muscle markers in P19 cells; assay type: cell-based, mouse; settings: for MHC and DHPR-alphal immunoreactive foci: aggregates treated day 0-4, stained day 14
Description: as §2

P19 cells [5] = experiment: Mean diameter of P19 cell aggregates; assay type: cell-based, mouse; settings: data not shown
Description: as §1

ANP mRNA = experiment: RT-PCR analysis of ANP gene transcript in P19 cultures; assay type: cell-based, mouse; settings: for ANP mRNA level compared to undifferentiated cells: day 14 of differentiation
Description: Total cellular RNA was extracted with TRIzol® Reagent (Invitrogen Life Technologies, Burlington, Ontario, Canada), and poly(A)^+mRNA was affinity purified from 200 μg of total RNA onto Oligotex® mRNA columns (Qiagen, Mississauga, Ontario, Canada), as per the manufacturers' instructions. […] Invitrogen). First-strand cDNA (5 μl) was then used for PCR amplification with OTR, ANP or GAPDH exon-specific oligonucleotide primers in a Robocycler Gradient 40 thermocycler (Stratagene, La Jolla, Calif.). Sequences of mouse OTR and ANP genes have been described (26, 34). Conditions for RT-PCR analysis of mouse OTR were adapted from Wagner et al. (6, 7). For all PCR studies the number of cycles used was within the linear range of amplification. The OTR sense and antisense primers were respectively the 22-bp [NT] ID NO:9) and the 23-bp [NT] ID NO:10). […] The ANP antisense and sense primers were respectively the 24-bp [NT] ID NO:11) and the 20-bp [NT] ID NO:12). […] The amplification of GAPDH mRNA, a constitutively and ubiquitously expressed gene, served as an internal standard for RT-PCR analysis. The 23-bp antisense primer [NT] ID NO:13) and the 23-bp sense primer [NT] ID NO:14) were used.

[6] = target: oxytocin receptor (OTR) of P19 mouse embryonal carcinoma cells (mouse) (UniProt P97926); experiment: cell-based or functional assay; settings: scale: cultures with beating colonies
Sequence of oxytocin receptor (OTR) of P19 mouse embryonal carcinoma cells (mouse) (P97926 whole entry): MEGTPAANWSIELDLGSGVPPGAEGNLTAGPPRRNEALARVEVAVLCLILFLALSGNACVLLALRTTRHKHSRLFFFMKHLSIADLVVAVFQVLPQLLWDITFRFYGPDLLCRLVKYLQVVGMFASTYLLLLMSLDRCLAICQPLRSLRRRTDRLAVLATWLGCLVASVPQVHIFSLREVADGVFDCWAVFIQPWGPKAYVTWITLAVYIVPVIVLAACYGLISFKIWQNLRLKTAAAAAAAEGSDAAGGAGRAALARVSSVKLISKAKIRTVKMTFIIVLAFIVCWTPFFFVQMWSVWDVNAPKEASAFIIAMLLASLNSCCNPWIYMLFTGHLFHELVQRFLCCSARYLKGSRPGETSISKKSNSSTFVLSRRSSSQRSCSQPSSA

P19 cells [7] = experiment: Rhodamine123 retention in P19 cultures; assay type: cell-based, mouse; settings: day 10 of differentiation, p<0.001
Description: For morphological examination, cells were grown directly onto the plastic surface of tissue culture vessels. For staining with rhodamine^123 (Sigma), day-4 aggregates were distributed in 24-well culture plates and grown until day 8. Then, dye was added to the culture medium at a final concentration of 1 μg/ml for 45 min, and afterwards, the cells were washed extensively with phosphate-buffered saline (PBS) and cultured for 48 h in the absence of the dye. Dye retained by cells in each well was measured by a fluorescence microplate reader (SPECTRA Max Gemini®, Molecular Devices, Sunnyvale, Calif.) at 505 nm for excitation and 534 nm for emission.

Molecule: C[S+](C)[O-] [DMSO]
OT release by induced P19 cells (P19 cells [1]): release OT in their culture medium | day by which beating cell colonies were present in all 24 independently growing cultures (P19 cells [2]): 12 days | OTR expression (protein and mRNA) after treatment (OTR; day 14): increased OTR expression | efficiency of cardiac differentiation (P19 cells [3]; DMSO-induced): ≤ 15% | MHC and DHPR-alphal immunoreactive foci [4]: numerous, intense, immunoreactive foci | reduction of mean aggregate diameter versus untreated counterparts (P19 cells [5]): 1.5 fold | ANP mRNA level compared to undifferentiated cells (ANP mRNA): at similar level

Molecule: N[C@@H](Cc1cc(I)c(Oc2ccc(O)c(I)c2)c(I)c1)C(=O)O [T3, triiodothyronine]
optimal effective concentration for cardiomyogenic differentiation of P19 cells (P19 cells [3]; Rodriguez et al., 1994): 30 nM

Molecule: [d(CH2)5^1,Tyr(Me)^2,Thr^4,Orn^8,Tyr-NH2^9]-vasotocin [OTA]
effect of OTA on T3-induced cardiac differentiation (P19 cells [2]; 30 nM T3 + 10^−7 M OTA): abolished cardiac differentiation induced by T3; also recorded: completely inhibits P19 cell differentiation into cardiomyocytes | effect of OTA on DMSO-induced cardiac differentiation (beating cell colonies) (P19 cells [2]; 10^−7 M OTA + 0.5% DMSO): abolished the cardiogenic action of DMSO; also recorded: completely inhibits P19 cell differentiation into cardiomyocytes | beating cells with OTA in combination with OT (P19 cells [2]; 10^−7 M OTA + 10^−7 M OT): no beating cells were seen | beating cells with OTA in place of OT (P19 cells [2]; 10^−7 M OTA alone): no beating cells were seen | effect of OTA on RA-induced cardiac differentiation (P19 cells [2]; RA 10^−7 M + OTA 10^−7 M): completely inhibits RA-induced cardiac differentiation; also recorded: completely inhibits P19 cell differentiation into cardiomyocytes | effect of OTA on OT-induced OTR upregulation (OTR; OT 10^−7 M + OTA 10^−7 M, day 14): inhibited OT-induced OTR upregulation | OTR expression (protein and mRNA) after treatment (OTR; day 14): did not upregulate OTR expression by itself | early OTR induction (RT-PCR) (OTR): no effect on OTR expression | effect of OTA on DMSO-induced ANP expression (ANP mRNA; DMSO + OTA day 0-4, day 14): not statistically significant | effect of OTA on OT-induced ANP expression (ANP mRNA; OT + OTA day 0-4, day 14, p<0.05): prevented OT-induced upregulation of ANP expression

production of beating cell colonies (P19 cardiomyocyte differentiation, 24-well plate) [6]: 24
Molecule: oxytocin (from UniProt P01178 20-28) (peptide)

Molecule: oxytocin [OT]
OT release by induced P19 cells (P19 cells [1]): release OT in their culture medium | OT concentration range over which differentiation into beating cardiomyocytes is concentration-dependent (P19 cells [2]; 4 days of aggregation with different OT concentrations): 10^−6 to 10^−9 M | formation of rhythmically-beating cells (P19 cells [2]; P19 cell aggregates treated day 0-4 with 10^−7 M OT): induced the formation of rhythmically-beating cells | day by which beating cell colonies were present in all 24 independently growing cultures (P19 cells [2]): 8 days | cardiac differentiation at the OT concentration supplied by serum in culture medium (P19 cells [2]; final OT concentration of 10^−12 M): not sufficient to induce cardiac differentiation | OTR expression (protein and mRNA) after treatment (OTR; day 14): increased OTR expression | OTR mRNA expression versus OT concentration (OTR; differentiated populations at day 14): concentration-dependent | early OTR induction (RT-PCR) (OTR): most potent OTR inducer | MHC and DHPR-alphal immunoreactive foci [4]: numerous, intense, immunoreactive foci | 6-day versus 4-day OT treatment of aggregates (myocyte immunological markers) ([4]; not presented): no difference with the 4-day treatment | rhodamine123 retention, OT compared with DMSO (P19 cells [7]): significantly higher after OT than DMSO treatment | reduction of mean aggregate diameter versus untreated counterparts (P19 cells [5]): 1.5 fold | ANP mRNA level compared to undifferentiated cells (ANP mRNA): significantly upregulated
